Test results from ChEMBL document CHEMBL1144629, “Synthesis and in vivo antihyperglycemic activity of nature-mimicking furanyl-2-pyranones in STZ-S model” (2007).

Assays:
Type in all cases: functional
Design in all cases: scale not given: the % may be the effect or the level left
[1] = tested on: Rattus norvegicus; test: Antihyperglycemic activity in STZ-induced diabetic Sprague-Dawley rat assessed as decrease in blood glucose at 100 mg/kg, po after 90 mins relative to control
[2] = tested on: Rattus norvegicus; test: Antihyperglycemic activity in STZ-induced diabetic Sprague-Dawley rat assessed as decrease in blood glucose at 100 mg/kg, po after 30 mins relative to control
[3] = tested on: Rattus norvegicus; test: Antihyperglycemic activity in STZ-induced diabetic Sprague-Dawley rat assessed as decrease in blood glucose at 100 mg/kg, po after 180 mins relative to control
[4] = tested on: Rattus norvegicus; test: Antihyperglycemic activity in STZ-induced diabetic Sprague-Dawley rat assessed as decrease in blood glucose at 100 mg/kg, po after 24 hrs relative to control
[5] = tested on: Rattus norvegicus; test: Antihyperglycemic activity in STZ-induced diabetic Sprague-Dawley rat assessed as decrease in blood glucose at 100 mg/kg, po after 5 hrs relative to control
[6] = tested on: Rattus norvegicus; test: Antihyperglycemic activity in STZ-induced diabetic Sprague-Dawley rat assessed as decrease in blood glucose at 100 mg/kg, po after 240 mins relative to control
[7] = tested on: Rattus norvegicus; test: Antihyperglycemic activity in STZ-induced diabetic Sprague-Dawley rat assessed as decrease in blood glucose at 100 mg/kg, po after 120 mins relative to control
[8] = tested on: Rattus norvegicus; test: Antihyperglycemic activity in STZ-induced diabetic Sprague-Dawley rat assessed as decrease in blood glucose at 100 mg/kg, po after 60 mins relative to control

Row | SMILES | Activity [1] | Activity [2] | Activity [3] | Activity [4] | Activity [5] | Activity [6] | Activity [7] | Activity [8]
1 | CSc1cc(-c2cc(C)oc2C)oc(=O)c1C(N)=O | 33% | 13.2% | 16.3% | 23.9% | 11.2% | 12.6% | 29.4% | 28.8%
2 | CSc1cc(-c2ccco2)oc(=O)c1C(N)=O | 6.3% | 8.5% | 1.2% | 19.3% | 5.52% | 1.3% | 8.9% | 9.6%
3 | Cc1cc(-c2cc(N3CCOCC3)c(C#N)c(=O)o2)c(C)o1 | 24% | 16.6% | 18.5% | 29.7% | 20.3% | 20.7% | 29% | 18.4%
4 | Cc1cc(-c2cc(N3CCCCC3)c(C#N)c(=O)o2)c(C)o1 | 6.8% | 8.6% | 0.8% | 19.7% | 5.2% | 1% | 8.7% | 9.4%
5 | CN1CCN(c2cc(-c3ccco3)oc(=O)c2C#N)CC1 | 17.3% | 12.5% | 16.8% | 20% | 12.8% | 14.6% | 22.8% | 17.5%
6 | Cc1cc(-c2cc(N3CCCC3)c(C#N)c(=O)o2)c(C)o1 | 20.9% | 12.5% | 7.8% | 10.5% | 4.5% | 1.2% | 20.9% | 17.3%
7 | CSc1cc(-c2cc(C)oc2C)oc(=O)c1C#N | 21.2% | 12.6% | 2.3% | 4.5% | 5.2% | 2.5% | 16.5% | 16.2%
8 | CN(C)C(=N)NC(=N)N [METFORMIN] | 24.5% | 15.9% | 18.7% | 30% | 20.7% | 21.1% | 29.2% | 18.2%
9 | N#Cc1c(N2CCOCC2)cc(-c2ccco2)oc1=O | 19.8% | 13.1% | 1.8% | 0.5% | 9.8% | 5.2% | 17.4% | 15.9%
10 | N#Cc1c(N2CCN(c3ccccc3)CC2)cc(-c2ccco2)oc1=O | 20.2% | 11.8% | 1.9% | 2.5% | 6.1% | 3.9% | 15.9% | 15.7%
11 | Cc1cc(-c2cc(N3CCC(C)CC3)c(C#N)c(=O)o2)c(C)o1 | 20.9% | 12.5% | 2.6% | 4.2% | 5.5% | 2.8% | 16.8% | 16.3%
12 | N#Cc1c(N2CCCCC2)cc(-c2ccco2)oc1=O | 21.1% | 12.8% | 7.5% | 10.4% | 4.8% | 1.4% | 21.3% | 17.5%
13 | CSc1cc(-c2ccco2)oc(=O)c1C#N | 19.6% | 11.8% | 8.1% | 6.7% | 6.8% | 2.3% | 19.8% | 16.5%
